Results from patent US5242945A, “Tetronic and thiotetronic acid derivatives as phospholipase A2 inhibitors” (American Home Products Corporation, priority 1991, dated 1993).

Experiments:
[1] = system: platelet-activating factor (PAF) biosynthesis in human polymorphonuclear neutrophils (PMN); test: platelet-activating factor biosynthesis in human polymorphonuclear neutrophils (in vitro phospholipase A2 assay); assay type: cell-based; settings: Polymorphonuclear neutrophil; 50 μM; human PMN
Method: The compounds of the invention are tested in an in vitro phospholipase A2 assay to determine the ability of the compounds to inhibit the biosynthesis of platelet-activating factor and LTB4 in purified human neutrophils.
A leukocyte enriched blood sample obtained from a healthy donor is procured by leukophoresis using a Haemonetics model 30+ blood processor (Biological Specialties, Inc., Lansdale, Penn.). The top "platelet-rich" layer is removed after a low speed spin (35 xg, 15 min, 25° C.) of the sample. The remaining cell suspension is centrifuged (400 xg, 10 min, 25° C.) to sediment the remaining cells. The supernatant is discarded and the cell pellet resuspended in 120 ml HBSS (without Ca^++ /Mg^++). The cell suspension is subjected to ficoll-hypaque sedimentation (Histopaque 1077, 400 xg, 30 min, 25° C.). Contaminating erythrocytes are lysed by hypotonic shock (1 min). The cells are then washed once with 40 ml of HBSS and resuspended with HBSS (without Ca^++ /Mg^++) to a concentration of 2.5×10^7 cells/ml for further use. Greater than 95% purity is obtained, as assessed by microscopic examination.
One ml of human PMN (2.5×10^7 cells/ml) is incubated with vehicle or drugs (10 μl) for 10 minutes at 30° C. After preincubation, an equal volume of HBSS (1 ml) containing 2.4 mM CaCl2, 6 μM calcium ionophore A23187 and 50 μCi [^3 H]-acetate is then incubated at 30° C. for 15 minutes. An aliquot (100 μl) of the reaction mixture is taken out and mixed with 900 μl of 15% ethanol. LTB4 is extracted by using solid phase extraction on reverse phase C18 columns to remove excess [^3 H]-acetate and PAD. The C18 column is prewashed once with 2 ml of ethanol and water. The sample aliquot is acidified with 0.1N HCl to pH 3 before applying to the column. The column is then washed with 2 ml of water followed by 2 ml of 15% ethanol and 2 ml of petroleum ether to remove excess labeled acetate. The sample is eluted with 2 ml of ethyl acetate. The collected samples are dried with nitrogen and resuspended in 0.5 ml RIA buffer. The quantity of LTB4 in the sample is obtained from RIA determination. For PAF determination, the reaction is terminated by addition of 5 ml chloroform:methanol:acetic acid (2:1:0.04, v/v/v). [^3 H]-PAF is obtained by Bligh and Dyer extraction. The chloroform phase is removed and dried under nitrogen. The residue is redissolved in 75 μl of chloroform:methanol (80:20, v/v). [^3 H]-PAF is resolved from other phospholipids by TLC on RPC18 plates with a solvent system of chloroform:methanol:water (2:3:1, v/v/v) and is quantitated using a Berthold automated TLC linear analyzer.
Data presented are the mean +/- s.d. of the values relative to control A23187 stimulated cells for each experiment assayed in triplicate. Percent inhibition when used is calculated as:
% Inhibition=100-[(x.div.Control)×100].
Dose response analysis is performed by non-linear regression analysis for curve fitting and IC50 determination.

cyclooxygenase (PGE2) = test: resident murine peritoneal macrophage assay, PGE2; assay type: cell-based, mouse (Swiss Webster); settings: Mus musculus, Peritoneal macrophage, zymosan stimulation
Method in brief: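 PGE2 release quantified by radioimmunoassay from supernatants after 2 hours stimulation (zymosan […] or arachidonic acid 2 μM) of overnight-cultured murine peritoneal macrophage monolayers (female Swiss Webster, 4×10^6 cells). Compound added 5 minutes beforehand in serum-free M199; values given as percent inhibition versus zymosan control.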

TPA-induced ear edema = test: 12-o-tetradecanoylphorbol acetate (TPA)-induced murine ear edema assay; assay type: in vivo, mouse (Swiss Webster); settings: TPA
Method in brief: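 Female Swiss Webster mice (~8 weeks, groups of six) got AA 2 mg/ear or TPA 2 μg/ear topically on the right ear, acetone on the left. Compounds dosed topically or s.c. 30 min before AA or 30 min after TPA. Ear thickness difference measured by caliper at 1 h (AA) or 4 h (TPA), expressed as % change from control.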

CCCCCCCCCCC/C=C\CCCCC(=O)C1=C(O)CSC1=O [Example 51, 4-Hydroxy-3-[(Z)-1-oxo-6-octadecenyl]-2(5H)-thiophenone]
inhibition at 50 µM [1]: 70% | inhibition at 0.1 µM (cyclooxygenase (PGE2); 0.1 μM): 0.5% | inhibition at 0.5 µM (cyclooxygenase (PGE2); 0.5 μM, read-out: PGE2 zymosan % Inhibition): 91.3% | Subcutaneous % Inhibition at 50 m/kg (TPA-induced ear edema; subcutaneous, 50 m/kg, no vehicle on line): 76% | Topical % Inhibition at 200 μg (TPA-induced ear edema; topical, 200 μg, vehicle not given): 55%
